{"source": "paper PMC5370004", "about": "“Doxycycline directly targets PAR1 to suppress tumor progression” (Oncotarget, 2017)", "molecular_target": "T1, Protease-activated receptor 1 (PAR1) (Homo sapiens, UniProt P25116)", "T1 construct": "gene F2R; PAR1 purified from 293-PAR1 cell lines", "T1 sequence (P25116 42-425)": "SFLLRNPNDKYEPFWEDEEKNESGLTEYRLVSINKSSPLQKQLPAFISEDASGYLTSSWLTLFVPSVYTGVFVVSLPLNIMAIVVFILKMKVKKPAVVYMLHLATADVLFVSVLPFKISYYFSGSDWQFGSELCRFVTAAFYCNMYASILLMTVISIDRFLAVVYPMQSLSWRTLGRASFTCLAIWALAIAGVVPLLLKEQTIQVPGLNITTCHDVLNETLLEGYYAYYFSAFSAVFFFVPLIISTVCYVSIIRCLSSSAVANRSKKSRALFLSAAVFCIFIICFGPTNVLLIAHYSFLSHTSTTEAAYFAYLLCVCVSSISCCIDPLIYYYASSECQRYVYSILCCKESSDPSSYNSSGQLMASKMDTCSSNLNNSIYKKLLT", "assay": "SPR (Biacore […], PAR1 immobilized on CM5 chip)", "type": "binding", "data": [{"smiles": "C[C@H]1c2cccc(O)c2C(=O)C2=C(O)[C@]3(O)C(=O)C(C(N)=O)=C(O)[C@@H](N(C)C)[C@@H]3[C@@H](O)[C@@H]21", "note": "[Doxycycline]", "values": [{"measurement": "Kd", "result": 23, "unit": "µM"}]}]}
